Reference: US10328062B2, “Biomarkers and use of MET inhibitor for treatment of cancer” (AMGEN, INC., priority 2014, dated 2019)
Where two headings read alike, the source gives them in different places.

Experiments:
Type in all cases: cell-based
[1] = test system: CAL-54; assay: 72 hour cancer cell line viability assay (CellTiter-Glo); details: Homo sapiens; CAL-54, Kidney; MET copy number Low, focal No; 72 hour viability
Procedure: (§1) Human cancer cell lines were purchased from ATCC, JCRB, Sigma Aldrich or DSMZ. All cell lines were propagated in growth media per the suppliers' recommendation and maintained in 5% CO2 and 37° C.
(§2) Cancer cell line viability assays were carried out using the CellTiter-Glo Luminescent Cell Viability Assay from Promega (Madison, Wis.). Optimal cell seeding densities were determined using time lapse imaging to maximize signal window and ensure cells were not contact growth inhibited at the 72 hour time point. Cells were seeded in 96 well plates in complete growth media and allowed to adhere to the bottom of the plate by incubation at 37° C. and 5% CO2 overnight. […] Plates were incubated at 37° C. and 5% CO2 for 72 hours. Treated plates were then allowed to equilibrate to room temperature along with, CellTiter-Glo substrate and buffer solution prior to use in the viability assay. CellTiter-Glo substrate vials were reconstituted in 10 mL of buffer solution and added to assay plates in 100 μL/well volumes. Plates were shaken for 2 minutes at 700 rotations per minute with an orbit diameter of 3 mm followed by room temperature incubation for 10 minutes. Plates were then read using an Envision plate reader on luminescent setting.
(§3) Threshold for high vs low MET copy number was set at aCGH log 2 ratio of 2.5. Focal nature of MET copy number increase was defined qualitatively using tiled aCGH results for chromosome 7.

[2] = test system: G-361; assay: as above; details: Homo sapiens; G-361, Melanoma; MET copy number Low, focal No; 72 hour viability
Procedure: as §1, §2, §3

[3] = test system: AU-565; assay: as above; details: Homo sapiens, AU565; AU-565, Breast; MET copy number Low, focal No; 72 hour viability
Procedure: as §1, §2, §3

[4] = test system: Alexander; assay: as above; details: Homo sapiens, Liver, MET copy number Low, focal No, 72 hour viability
Procedure: as §1, §2, §3

[5] = test system: EBC-1; assay: as above; details: Homo sapiens; EBC-1, NSCLC; MET copy number High, focal Yes; 72 hour viability
Procedure: as §1, §2, §3

[6] = test system: NUGC-4; assay: as above; details: Homo sapiens; NUGC-4, Gastric; MET copy number Low, focal Yes; 72 hour viability
Procedure: as §1, §2, §3

[7] = test system: NCI-H1648; assay: as above; details: Homo sapiens; NCI-H1648, NSCLC; MET copy number Low, focal Yes; 72 hour viability
Procedure: as §1, §2, §3

[8] = test system: HOP-92; assay: as above; details: Homo sapiens; HOP-92, NSCLC; MET copy number Low, focal No; 72 hour viability
Procedure: as §1, §2, §3

[9] = test system: Hs 746T; assay: as above; details: Homo sapiens, Hs746T, Gastric, MET copy number High, focal Yes, 72 hour viability
Procedure: as §1, §2, §3

[10] = test system: OE33; assay: as above; details: Homo sapiens; OE33, Esophagus; MET copy number High, focal Yes; 72 hour viability
Procedure: as §1, §2, §3

[11] = test system: C32; assay: as above; details: Homo sapiens; C32, Melanoma; MET copy number Low, focal No; 72 hour viability
Procedure: as §1, §2, §3

[12] = test system: NCI-H820; assay: as above; details: Homo sapiens; NCI-H820, NSCLC; MET copy number Low, focal No; 72 hour viability
Procedure: as §1, §2, §3

[13] = test system: HCC1395; assay: as above; details: Homo sapiens; HCC1395, breast; MET copy number Low, focal No; 72 hour viability
Procedure: as §1, §2, §3

[14] = test system: Malme-3M; assay: as above; details: Homo sapiens, Melanoma, MET copy number Low, focal No, 72 hour viability
Procedure: as §1, §2, §3

[15] = test system: NCI-H2342; assay: as above; details: Homo sapiens; NCI-H2342, NSCLC; MET copy number Low, focal No; 72 hour viability
Procedure: as §1, §2, §3

[16] = test system: NCI-H1573; assay: as above; details: Homo sapiens
Procedure: as §1, §2, §3

[17] = test system: human HCC cell lines; assay: HCC cell proliferation assay (CellTiter-Glo, 72 h)
Procedure: All human HCC cell lines were purchased from the American Type Culture Collection (ATCC), Japanese Collection of Research Bioresources (JCRB), Korean Cell line Bank (KCLB), Shanghai Institutes of Biological Sciences (SIBS), Zhongshan Hospital Fudan University (ZHFU), and routinely cultured in 96-well plates in ATCC's recommended growth media in the temperature of 37° C., 5% CO2 and 95% humidity. […] Luminescence was measured with a PerkinElmer EnVision® plate reader. Data will not be normalized to a control compound, rather POC (percent of control). POC=(compound treated signal/DMSO treated signal)*100. POC values were processed with the software of GraphPad Prism version 5 to calculate the absolute IC50. Time 0 (T0) reported as broken line on dose response curves were shown in the curve fitting as the percent of the net T3 DMSO control.
The fluorescence in situ hybridization (FISH) analysis and immunohistochemistry (IHC) staining were used to confirm c-MET amplification and high protein expression. The six sensitive and non-sensitive cell lines were selected, including MHCC97H, HCCLM3, JHH-4, JHH-5, SNU-398 and Hep3B. MHCC97H and HCCLM3 cell lines also had high levels of total MET with strong membrane staining (IHC 3+) and MET gene amplification (MET/CEP7>2.0), which were identified as Met-positive HCC. […]

COCCOc1cnc2ccn([C@H](C)c3nnc4c(F)cc(-c5cnn(C)c5)cn34)c(=O)c2c1 [Compound M, 6-{(1R)-1-[8-fluoro-6-(1-methyl-1H-pyrazol-4-yl)[1,2,4]triazolo[4,3-a]pyridin-3-yl]ethyl}-3-(2-methoxyethoxy)-1,6-naphthyridin-5(6H)-one]
did not show dramatic drug sensitivity: drug sensitivity ([17]; HCC cell lines with total c-MET IHC 2+, 1+ or 0)
3 nM: IC50 [9] | IC50 [10]
8 nM: IC50 [5]
> 3000 nM: IC50 [1] | IC50 [2] | IC50 [3] | IC50 [4] | IC50 [6] | IC50 [7] | IC50 [8] | IC50 [11] | IC50 [12] | IC50 [13] | IC50 [14] | IC50 [15] | IC50 ([16]; NCI-H1573, NSCLC, MET copy number High, focal Yes, 72 hour viability, read-out: IC50) | IC50 ([16]; NCI-H1573, high level focal MET amplification (log 2 ratio=2.9), KRAS G12A, read-out: viability assay IC50)
significant and favorable response: response to Compound M ([17]; Met-positive HCC (MHCC97H, HCCLM3: IHC 3+, MET/CEP7>2.0))
